Laboratory results from PMC10648852, “Molecular drivers of resistance to sulbactam-durlobactam in contemporary clinical isolates of Acinetobacter baumannii” (Antimicrobial Agents and Chemotherapy, 2023).

Columns and labels:
Assay in all cases: microbe, parasite or virus in culture
[1] = test system: ABC clinical isolates with SUL-DUR MIC > 4 µg/mL; format: cell-based, Acinetobacter baumannii-calcoaceticus complex
Method: (§1) The following report describes the genomic analysis of these isolates for likely resistance mechanisms. Biochemical analysis of purified PBP3 and phenotypic analyses of both clinical and isogenic strains were also conducted to determine the relative impact of key resistance determinants to SUL-DUR antibacterial activity.
(§2) Antimicrobial susceptibility testing was performed using broth microdilution following standardized methods established by the Clinical Laboratory Standards Institute (CLSI) ([35], [36]). […] MIC values were interpreted using CLSI breakpoints for all antimicrobial agents except those for which CLSI breakpoints are not available ([35]). SUL-DUR was tested as twofold dilutions of sulbactam in combination with a fixed concentration of 4 µg/mL durlobactam ([35]).

[2] = test system: A. baumannii clinical isolates; format: cell-based
Method: as §1, §2

[3] = test system: A. nosocomialis clinical isolate; format: cell-based; settings: isolate ARC7023 (IHMA 2118812), France, BSI, 2019
Method: as §1, §2

[4] = test system: A. pittii clinical isolates; format: cell-based
Method: as §1, §2

colistin [CST]
0.5 µg/mL: MIC50 [1] | MIC ([2]; isolate ARC6646 (IHMA 1484127), United States, RTI, 2016) | MIC ([2]; isolate ARC6647 (IHMA 1386786), Argentina, RTI, 2016) | MIC ([2]; isolate ARC6650 (IHMA 1457337), Argentina, RTI, 2016) | MIC ([2]; isolate ARC6653 (IHMA 1308777), Vietnam, RTI, 2016) | MIC ([2]; isolate ARC6799 (IHMA 1562935), Spain, UTI, 2017) | MIC ([2]; isolate ARC6809 (IHMA 1699528), Guatemala, RTI, 2017) | MIC ([2]; isolate ARC6810 (IHMA 1699548), Guatemala, RTI, 2017) | MIC ([2]; isolate ARC6812 (IHMA 1699530), Guatemala, RTI, 2017) | MIC ([2]; isolate ARC6814 (IHMA 1699512), Guatemala, RTI, 2017) | MIC ([2]; isolate ARC6815 (IHMA 1699513), Guatemala, RTI, 2017) | MIC ([2]; isolate ARC6816 (IHMA 1699521), Guatemala, RTI, 2017) | MIC ([2]; isolate ARC6817 (IHMA 1699523), Guatemala, RTI, 2017) | MIC ([2]; isolate ARC6821 (IHMA 1699517), Guatemala, RTI, 2017) | MIC ([2]; isolate ARC6822 (IHMA 1637626), Guatemala, RTI, 2017) | MIC ([2]; isolate ARC6937 (IHMA 1562926), Spain, UTI, 2017) | MIC ([2]; isolate ARC6950 (IHMA 1820064), Israel, RTI, 2018) | MIC ([2]; isolate ARC6953 (IHMA 1909827), Turkey, IAI, 2018) | MIC ([2]; isolate ARC6954 (IHMA 1838192), Guatemala, SSSI, 2018) | MIC ([2]; isolate ARC6955 (IHMA 1825425), United States, RTI, 2018) | MIC ([2]; isolate ARC7008 (IHMA 2009813), Thailand, BSI, 2019) | MIC ([2]; isolate ARC7009 (IHMA 2043611), United States, UTI, 2019) | MIC ([2]; isolate ARC7010 (IHMA 2043398), United States, RTI, 2019) | MIC ([2]; isolate ARC7011 (IHMA 2104553), Germany, RTI, 2019) | MIC ([2]; isolate ARC7013 (IHMA 1962831), Argentina, RTI, 2019) | MIC ([2]; isolate ARC7015 (IHMA 2045327), Guatemala, UTI, 2019) | MIC ([2]; isolate ARC7016 (IHMA 2148441), Brazil, BSI, 2019) | MIC ([2]; isolate ARC7018 (IHMA 2045454), Guatemala, IAI, 2019) | MIC ([2]; isolate ARC7019 (IHMA 2114463), Thailand, RTI, 2019) | MIC ([2]; isolate ARC7020 (IHMA 2045326), Guatemala, RTI, 2019) | MIC ([2]; isolate ARC7022 (IHMA 2045319), Guatemala, IAI, 2019) | MIC ([2]; isolate ARC7025 (IHMA 2002121), Spain, RTI, 2019) | MIC ([2]; isolate ARC7026 (IHMA 2104494), Guatemala, BSI, 2019) | MIC ([2]; isolate ARC7083 (IHMA 2163687), United States, RTI, 2020) | MIC ([2]; isolate ARC7092 (IHMA 2258772), United States, BSI, 2020) | MIC ([2]; isolate ARC7161 (IHMA 2429252), Ukraine, RTI, 2021) | MIC ([4]; isolate ARC6949 (IHMA 1898982), Romania, RTI, 2018)
≤0.25 µg/mL: MIC Min [1] | MIC ([2]; isolate ARC6644 (IHMA 1420327), Mexico, UTI, 2016) | MIC ([2]; isolate ARC6645 (IHMA 1435703), France, UTI, 2016) | MIC ([2]; isolate ARC6648 (IHMA 1407634), Spain, RTI, 2016) | MIC ([2]; isolate ARC6652 (IHMA 1465642), Belgium, RTI, 2016) | MIC ([2]; isolate ARC6801 (IHMA 1662094), Thailand, RTI, 2017) | MIC ([2]; isolate ARC6802 (IHMA 1557073), Spain, UTI, 2017) | MIC ([2]; isolate ARC6803 (IHMA 1589408), Belgium, UTI, 2017) | MIC ([2]; isolate ARC6805 (IHMA 1558650), United States, RTI, 2017) | MIC ([2]; isolate ARC6808 (IHMA 1557168), Spain, RTI, 2017) | MIC ([2]; isolate ARC6813 (IHMA 1699543), Guatemala, UTI, 2017) | MIC ([2]; isolate ARC6818 (IHMA 1683261), Thailand, RTI, 2017) | MIC ([2]; isolate ARC6820 (IHMA 1647876), Argentina, RTI, 2017) | MIC ([2]; isolate ARC7017 (IHMA 2148446), Brazil, BSI, 2019) | MIC ([2]; isolate ARC7082 (IHMA 2160640), Belgium, BSI, 2020) | MIC ([2]; isolate ARC7084 (IHMA 2189596), Germany, RTI, 2020) | MIC ([2]; isolate ARC7085 (IHMA 2205747), Guatemala, IAI, 2020) | MIC ([2]; isolate ARC7086 (IHMA 2207563), Israel, RTI, 2020) | MIC ([2]; isolate ARC7088 (IHMA 2215554), Turkey, BSI, 2020) | MIC ([2]; isolate ARC7089 (IHMA 2240345), Argentina, BSI, 2020) | MIC ([2]; isolate ARC7091 (IHMA 2244564), Australia, RTI, 2020) | MIC ([2]; isolate ARC7093 (IHMA 2258783), United States, RTI, 2020) | MIC ([2]; isolate ARC7094 (IHMA 2296423), Turkey, RTI, 2020) | MIC ([2]; isolate ARC7095 (IHMA 2320843), Turkey, BSI, 2020) | MIC ([4]; isolate ARC6951 (IHMA 1776233), Philippines, RTI, 2018) | MIC ([4]; isolate ARC7087 (IHMA 2212062), Colombia, BSI, 2020)
0.25 µg/mL: MIC ([2]; isolate ARC7158 (IHMA 2523738), Italy, BSI, 2021) | MIC ([2]; isolate ARC7159 (IHMA 2456229), Malaysia, RTI, 2021) | MIC ([2]; isolate ARC7160 (IHMA 2458626), Thailand, RTI, 2021) | MIC ([2]; isolate ARC7162 (IHMA 2411847), United States, BSI, 2021) | MIC ([2]; isolate ARC7163 (IHMA 2477704), United States, BSI, 2021)
>8 µg/mL: MIC Max [1] | MIC ([2]; isolate ARC6800 (IHMA 1557526), Turkey, RTI, 2017) | MIC ([2]; isolate ARC7090 (IHMA 2244410), Poland, RTI, 2020)
8 µg/mL: MIC ([2]; isolate ARC7156 (IHMA 2455450), Greece, RTI, 2021)
1 µg/mL: MIC90 [1] | MIC ([2]; isolate ARC6819 (IHMA 1683267), Thailand, RTI, 2017) | MIC ([2]; isolate ARC6823 (IHMA 1620872), Greece, SSSI, 2017) | MIC ([2]; isolate ARC6824 (IHMA 1625487), Argentina, BSI, 2017) | MIC ([2]; isolate ARC7012 (IHMA 2010001), Thailand, RTI, 2019) | MIC ([2]; isolate ARC7014 (IHMA 2045328), Guatemala, IAI, 2019) | MIC ([2]; isolate ARC7021 (IHMA 1966347), Guatemala, RTI, 2019) | MIC ([2]; isolate ARC7024 (IHMA 2059448), Turkey, RTI, 2019) | MIC [3] | MIC ([4]; isolate ARC6952 (IHMA 1899008), Romania, RTI, 2018)
